The results in this text go back to PubChem BioAssay (NCI).

Common to all, as to experiment: inhibition of tumour cell growth, NCI panel, 48 h
For assay [1], the system named is UACC-257 melanoma.
The subject of assay [2] is OVCAR-8 ovarian.
The test system of assay [3] is RXF 393 renal.
In assay [4] the test system is ACHN renal.
Assay [5] has as its system HT29 colon.
In assay [6] the test system is SK-MEL-5 melanoma.
In assay [7] the test system is HOP-62 NSCLC.
In assay [8] the test system is RPMI-8226 leukemia.
Assay [9] concerns SF-268 CNS.
Assay [10] concerns CCRF-CEM leukemia.

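The compound was tested at five concentrations on cells cultured in 96-well plates, with a 48-hour exposure period. Abbreviation: GI50, concentration required for 50% inhibition of growth. TGI: concentration producing complete growth inhibition.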 A value given as a limit tells only on which side of the number the result lay.

`CCCCCCCC(=O)SCC/C=C/[C@@H]1CC(=O)NCc2cccc(n2)CN(Cc2ccc(Cl)cc2)CC(=O)N[C@@H](C(C)C)C(=O)O1`: the GI50 in assay [1] is 8.99 µM; in assay [2] it was 9.1 µM; in assay [3] it was 5.9 µM; in [4], 6.44 µM; in [5], 4.3 µM; in [6] it was 5.26 µM. The GI50 was 5.4 µM in assay [7], 46.4 µM in [8], 20 µM in assay [9] and 4.56 µM in assay [10]. Besides, the TGI in assay [1] was 70.4 µM; in [2] it was above 100 µM; in assay [3] it was 44 µM; in assay [4] it was 49.8 µM; in assay [5] it was above 100 µM; in assay [6], 17.6 µM. For the same compound, the TGI in assay [7] was 44.4 µM; in [8], above 100 µM; in assay [9] it was above 100 µM; in assay [10], above 100 µM.
For `COC(=O)c1ccc2n[se]nc2c1`, the TGI in assay [1], in assay [2], in [3], in assay [4], in [5] and in [6] was above 100 µM in each case. For the same compound, the TGI in assay [7], in [8], in assay [9] and in assay [10] was above 100 µM throughout.
As to `Cc1cc(CC(O)(C(F)(F)F)C(F)(F)F)cc(CC(O)(C(F)(F)F)C(F)(F)F)n1`, the TGI turned out to be 8.65 µM in assay [1]; 12.4 µM in [2]; 14.9 µM in assay [3]; 8.29 µM in assay [4]; 7.79 µM in assay [5]; 3.34 µM in assay [6]. For the same compound, the TGI in assay [7] was found to be 8.79 µM; in [8], 5.96 µM; in assay [9], 10.1 µM; in assay [10], 12 µM.
Take `COc1cc(C2CC(c3ccc(C)cc3)=NN2C(C)=O)ccc1Oc1ccnc2cc(Cl)ccc12` (stereo unspecified): the GI50 is above 100 µM in [1]; 3.57 µM in assay [3]; 2.76 µM in assay [4]; above 100 µM in [5]; above 100 µM in assay [6]; 4.3 µM in assay [7]. Moreover, the GI50 is above 100 µM in [8], 38.4 µM in [9] and above 100 µM in [10]. The TGI in assay [1], in assay [3], in assay [4], in [5], in [6] and in assay [7] was above 100 µM throughout. Moreover, the TGI in [8], in [9] and in assay [10] was above 100 µM each time.
For `Cc1cc(C)c2nc(Nc3nc(C)c(C)c(=O)[nH]3)nc(C)c2c1`, the GI50 was 2.82 µM in assay [1]; 2.83 µM in assay [2]; 2.39 µM in assay [3]; 3.06 µM in assay [4]; 2.25 µM in assay [5]; 3.06 µM in [6]. The GI50 was 1.96 µM in assay [7], 2.13 µM in assay [8], 2.82 µM in assay [9] and 2.72 µM in [10]. For the same compound, the TGI was found to be 9.22 µM in assay [1]; 10.7 µM in assay [2]; 7.55 µM in [3]; 11.6 µM in assay [4]; 6.04 µM in assay [5]; 11.8 µM in assay [6]. The TGI in assay [7] is 8.82 µM; in [8], 6.21 µM; in assay [9] it was 13.8 µM; in assay [10], 8.61 µM.
For `CC1CCC(O)/C=C/C(=O)OC(C)C(O)/C=C/C(=O)O1` (stereo unspecified), the TGI in [1], in assay [2], in assay [3], in assay [4], in [5] and in [6] was above 100 µM in each case. In addition, the TGI is above 100 µM in assay [7], above 100 µM in [8], above 100 µM in [9] and above 79.9 µM in assay [10].
In the case of `O=C(O)/C=C/C(=O)Nc1cccc2c1-c1ccccc1C2=O`, the TGI in [1] was above 100 µM; in assay [2] it was above 100 µM; in assay [3], above 55 µM; in [4] it was above 100 µM; in [5], above 91.9 µM; in assay [6] it was above 100 µM. In addition, the TGI in assay [7] is above 100 µM; in assay [8], 62.6 µM; in assay [9], above 100 µM; in assay [10], above 28.3 µM.
In the case of `CC(=O)OC1CC[C@@]2(C)C(CC(OC3OC(CO)C(O)C(O)C3O)[C@]3(C)C2CCC24CC23CC[C@H]4C(C)CC(O)[C@@H](O)C(C)(C)O)C1(C)C` (stereo partly specified), the TGI in assay [1] was 24.4 µM; in [2] it was above 50 µM; in [3], 30.1 µM; in [4] it was above 50 µM; in [5], above 50 µM; in [6] it was 15.9 µM. The TGI is 40.1 µM in assay [7], 24.8 µM in assay [8], above 50 µM in [9] and 25.7 µM in [10].
With `COC(=O)c1nc(N)[nH]c(=O)c1-c1ccc(Cl)cc1`, the TGI in assay [1], in assay [2], in assay [3], in [4], in assay [5] and in assay [6] was above 100 µM throughout. In addition, the TGI in [7], in assay [8], in assay [9] and in assay [10] was above 100 µM in each case.
On to `COc1ccc(-n2cc(-c3ccc(Cl)cc3)[nH]c2=S)cc1Cl`, for which the GI50 was above 100 µM in [1]; 37.4 µM in assay [2]; 25.6 µM in assay [3]; 33.1 µM in assay [4]; 74.2 µM in [5]; 42.1 µM in assay [6]. Also, the GI50 in [7] was 32.4 µM; in assay [8] it was 55.3 µM; in [9], 28 µM; in [10], 60.6 µM. For the same compound, the TGI in assay [1] is above 100 µM; in assay [2] it was above 100 µM; in [3], 54.1 µM; in [4], above 100 µM; in assay [5] it was above 100 µM; in assay [6], above 100 µM. Also, the TGI in assay [7] was 92.2 µM; in assay [8], above 100 µM; in [9], 76.5 µM; in assay [10] it was above 100 µM.
Turning to `CCCCC#Cc1c(I)n(C2OC(CO[Si](C)(C)C(C)(C)C)C3OC(C)(C)OC32)c(=O)[nH]c1=O` (stereo unspecified), the GI50 in assay [1] is 3.1 µM; in [2] it was 3.73 µM; in [3], 1.5 µM; in assay [4], 2.29 µM; in [5], 8.21 µM; in assay [7], 20 µM. The GI50 was 2.17 µM in assay [8], 10.3 µM in assay [9] and 2.64 µM in assay [10]. The TGI in assay [1] worked out at 15.5 µM; in [2], 15.9 µM; in assay [3], 5.46 µM; in assay [4], 7.52 µM; in assay [5], 22.1 µM; in [7], 34.7 µM. The TGI in assay [8] stood at 5.28 µM; in [9], 22.4 µM; in [10], 8.04 µM.
As to `Clc1cc(Cl)c2n[se]nc2c1`, the TGI in assay [1], in [2], in assay [3], in assay [4], in [5] and in [6] was above 100 µM throughout. Also, the TGI in assay [7], in assay [8], in assay [9] and in assay [10] was above 100 µM in each case.
Regarding `O=C(/C=C(\O)C(=O)O)/C=C(\O)c1ccc(Cl)cc1`, the TGI in assay [1], in [2], in assay [3], in assay [4], in [5] and in [6] was above 100 µM each time. Also, the TGI in assay [7], in [8], in assay [9] and in assay [10] was above 100 µM in each case.
As to `COC(=O)CC[C@@H](NC(=O)C(C)NC(=O)COC1C(O)C(COC(=O)CCCCCCCCCCNC(=O)c2ccc([N+](=O)[O-])c3[nH]c4cc(Br)ccc4c(=O)c23)OC(OCc2ccccc2)C1NC(C)=O)C(N)=O` (stereo partly specified), the TGI in assay [1] is above 100 µM; in assay [2] it was above 100 µM; in assay [3], 80.3 µM; in [4] it was above 100 µM; in assay [5], above 100 µM; in [6] it was above 100 µM. The TGI in assay [7], in assay [8], in assay [9] and in assay [10] was above 100 µM throughout.
Take `COC1=CC(=O)c2c(O)c3c(c(O)c2C1=O)CC(C)(O)OC3` (stereo unspecified): the TGI was 4.88 µM in [1]; 8.65 µM in assay [2]; 16.5 µM in assay [3]; above 34 µM in assay [4]; 11.6 µM in assay [5]; 2.41 µM in [6]. The TGI is 12.7 µM in assay [7], above 76.8 µM in [8], above 100 µM in assay [9] and 17.4 µM in [10].
In the case of `COC1=C(C(=O)OC(C)(C)C)C23CCCCC2(C(C(=O)OC(C)(C)C)=C(OC)C3C(=O)OC(C)(C)C)C1C(=O)OC(C)(C)C` (stereo unspecified), the TGI in assay [1] is above 100 µM; in assay [2], above 100 µM; in assay [3] it was above 100 µM; in [4], above 100 µM; in assay [5] it was above 100 µM; in assay [6], 36 µM. Also, the TGI in assay [7], in assay [8], in [9] and in [10] was above 100 µM throughout.
In the case of `Cc1cc(C)c(-c2noc(-c3ccc(Cl)cc3)c2C2=NCCN2)c(C)c1`, the TGI in [1] was 34 µM; in assay [3] it was 45.1 µM; in [4] it was above 100 µM; in assay [5], 34.2 µM; in assay [6], 24 µM; in assay [7], 62 µM. The TGI in assay [8] is 50.6 µM; in assay [9] it was 37.4 µM; in assay [10], 74.7 µM.
`CC(C)CCC[C@@H](C)C1CCC2[C@@H]3CC=C4C[C@@H](OC(=O)CCC(=O)NCC[N+](C)(C)CCCS(=O)(=O)[O-])CC[C@]4(C)C3CC[C@@]21C` (stereo partly specified): the TGI is 48.8 µM in assay [1]; 35 µM in [2]; 24.2 µM in assay [3]; 53.9 µM in assay [4]; 80.3 µM in [5]; 33.9 µM in assay [7]. The TGI in assay [8] was determined as 45.9 µM; in assay [9], 39.7 µM; in assay [10] it was 42.6 µM.
On to `COc1ccc(-c2ccc(/C=N/n3cnn(CN4CCN(C)CC4)c3=S)o2)c([N+](=O)[O-])c1`, for which the GI50 in assay [2] was 18.9 µM; in [3], 24.4 µM; in assay [4], 30.1 µM; in assay [5] it was 28.4 µM; in [6], 23.9 µM; in assay [7], 34.1 µM. In addition, the values for the GI50 in assay [8], in assay [9] and in assay [10] were 21.9 µM, 23.6 µM and 11.6 µM, respectively. In addition, the TGI in [2] was 55.5 µM; in assay [3], above 100 µM; in assay [4] it was 70.5 µM; in assay [5], above 100 µM; in assay [6], 62.7 µM; in assay [7] it was above 100 µM. In addition, the TGI came to 54.2 µM in [8], 69.5 µM in assay [9] and 94.7 µM in [10].
As to `COc1ccc(-c2cc(-c3ccco3)c(C#N)c(=O)n2C2OC(OC(=O)c3ccccc3)C(OC(=O)c3ccccc3)C2OC(=O)c2ccccc2)cc1` (stereo unspecified), the TGI in assay [1] is above 100 µM; in [2] it was above 100 µM; in [3], 63.7 µM; in [4], above 100 µM; in [5], above 100 µM; in assay [6], above 100 µM. The TGI in assay [7], in assay [8] and in assay [10] was above 100 µM throughout.
